Measured values: ChEMBL document CHEMBL3232833, “5,10-seco-neo-clerodanes and neo-clerodanes from Salvia microphylla” (J Nat Prod, 2014)

Key:
U-251 = assay: Cytotoxicity against human U251 cells after 48 hrs by sulforhodamine B method; assay type: functional, cell-based; conditions: U-251, 48 h
[1] = Cytotoxicity against human SKLU1 cells after 48 hrs by sulforhodamine B method; assay type: functional, cell-based; conditions: SK-LU-1, 48 h
PC-3 = assay: Cytotoxicity against human PC3 cells after 48 hrs by sulforhodamine B method; assay type: functional, cell-based; conditions: PC-3, 48 h
MCF7 = assay: Cytotoxicity against human MCF7 cells after 48 hrs by sulforhodamine B method; assay type: functional, cell-based; conditions: MCF7, 48 h
Mus musculus = assay: Antiinflammatory activity in CD1 mouse assessed as reduction of TPA-induced ear edema per ear after 4 hrs; assay type: functional, organism-based
[2] = Cytotoxicity against human HCT15 cells after 48 hrs by sulforhodamine B method; assay type: functional, cell-based; conditions: HCT-15, 48 h
K562 = assay: Cytotoxicity against human K562 cells after 48 hrs by sulforhodamine B method; assay type: functional, cell-based; conditions: K562, 48 h

Measured: IC50

C[C@]12C[C@H](c3ccoc3)OC(=O)[C@H]1CC[C@@]13COC(=O)C1=CC=C[C@@]32O
> 1 µmol: Mus musculus
> 10 µM: all other assays above

C[C@]12C[C@H](c3ccoc3)OC(=O)[C@H]1CCC1=C(/C=C\CC2=O)C(=O)OC1
> 1 µmol: Mus musculus
> 10 µM: all other assays above
